Data on four molecules can be found in US20090312380A1, “NOVEL COMPOSITIONS AND METHODS” (priority 2006, published 2009).

Molecules are shown by their SMILES.

Holding throughout (type): physicochemical
Data set [1] in a line: Water surface area from GVS data, Excess Surface Work (ESW) model. The conditions noted are these: for Water Surface Area (WSA): ESW adsorption model, GVS adsorption runs. As to the method:
The xy-data pairs used for the sorption isotherms (mRH, RH-levels) can also be used for a different approach to describe the sorption isotherm. Here, the change in chemical potential Δμ for the sorption process at each relative humidity (and at temperature T) is calculated:
with: R=Universal Gas Constant • T=Temperature • p=water partial pressure at humidity RH and temperature T • ps=water vapour saturation pressure at temperature T
Based on the change in chemical potential Δμ, an energetic term φ can be calculated for each relative humidity, termed excess surface work (ESW) according to J. Adolphs and M. J. Setzer, Journal of Colloid and Interface Science, vol. 180, pp. 70-76, 1996:
with: Φ=excess surface work • Δμ=change in chemical potential • nads=number of moles of water adsorbed in equilibrium at humidity RH
A plot of Φ/RT vs. nads can then be generated, to allow the value of nads at the minimum value of Φ/RT to be deduced. This value of nads corresponds to nmono.
(§1) The calculated monolayer coverage nmono obtained from the application of the gas sorption models to GVS data can be re-calculated to water surface area Awater, taking into account the mean cross sectional area aH2O occupied by one water molecule upon adsorption:
(§2) with: Awater=water surface area [m^2/g] • aH2O mean cross sectional area of one water molecule adsorbed 10^−19 m^2/molecule • nmono=apparent amount adsorbed in the monolayer [mol] • NL=Lochschmidt number=6×10^23 molecules/mol • mdry (sample)=dry mass of sample [g]
Likewise, the determination of the ESW water surface area is illustrated for sample A as follows.
A plot of Φ/RT versus the change in mass for sample A was then generated (see FIG. 3). From this, it could be deduced that the minimum value of Φ/RT corresponded to a change in mass of 0.0369 mg, the apparent monolayer amount. This is turn equated to a WSA of 6.65 m^2/g, using equation (A4) above, wherein mdry=18.57 mg.

Data set [2] can be described thus: Water surface area from GVS data, BET model. The conditions noted are these: for Water Surface Area (WSA): BET adsorption model, GVS adsorption runs; for water surface area (ranking): Table 6, compared to samples B or C; for surface hydrophilicity group predicted from the WSA data: WSA data of Table 6 (ESW and BET); for number of hydrophilic domains: from ESW and BET water surface areas and GVS results; for WSA compared with SSA: water surface area versus specific surface area (nitrogen).
Description: The multilayer sorption model according to Brunauer, Emmet and Teller Journal of the American Chemical Society, vol. 60, pp. 309, 1938) is described as follows:
with: n=number of moles adsorbed at p/p, (=RH/100) • nmono=apparent number of moles adsorbed in monolayer • p/ps=gas partial pressure (=RH/100 in the GVS experiments) • C=BET constant (measure for the strength of the sorption interaction)
From the sorption kinetics, the equilibrium weight changes at the end of each RH stage are extracted to compile xy-data pairs (RH vs. adsorbed amount).
From this, a plot of [p/ps]/[n(1−p/ps)] versus p/ps should give a linear correlation with intercept b=1/[C(nmono)] and slope m=b(C−1).
Evaluation is done by using 5-7 data points (RH vs. adsorbed amount) in the RH range 5-30% RH, which are then used for linear regression to obtain the intercept b and slope m (as explained above). The data is considered acceptable, if the correlation coefficient (r^2) of the linear regression is >0.95, although a correlation coefficient of ≧0.99 should be obtainable for most data sets. From slope and intercept, one can calculate the BET constant C and apparent monolayer amount nmono.
as §1, §2
The determination of the BET water surface area is illustrated for sample A as follows. From the relative humidity data and the mass difference, p/ps and [p/ps]/[n(1−p/ps)] were calculated to give the values shown in Table 4.
A plot of p/ps versus [p/ps]/[n(1−p/ps)] was then generated (see FIG. 2) allowing the slope (m=26.726) and the intercept (b=3.8219) to be calculated. Using the equations b=1/[C(nmono)] and m=b(C−1), the apparent monolayer amount, n^mono, was calculated to equate to 0.0327 mg. This in turn led to a WSA of 5.9 m^2/g, using equation (A4) above, wherein mdry=18.57 mg.

The nature of data set [3]: Particle size profile of irbesartan samples. The conditions noted are these: for D (v, 0.1) particle size: 10 % of particles smaller; for D (v, 0.5) particle size: 50 % of particles smaller; for D (v, 0.9) particle size: 90 % of particles smaller. As to the method:
The particle size profile of samples A-D of irbesartan were tested (see Table 1). It can be seen that across the range the particle sizes were very similar. Thus any difference in dissolution kinetics of samples from the relevant batch cannot be attributed to particle size. The D values represent particle size medians from the detected particle size distribution curves. D(v, x) means that 100x % of particles are smaller than the corresponding D value, and 100-100x % of particles are larger. The samples were also subjected to the Brunauer-Emmett-Teller (BET)-nitrogen adsorption analysis to determine the total surface area of the samples as follows: […]

Data set [4] is described as follows: BET nitrogen adsorption analysis, total specific surface area. The conditions noted are these: for Specific Surface Area (nitrogen): BET nitrogen adsorption model, 77.3K. The text has this:
The D values represent particle size medians from the detected particle size distribution curves. D(v, x) means that 100x % of particles are smaller than the corresponding D value, and 100-100x % of particles are larger. The samples were also subjected to the Brunauer-Emmett-Teller (BET)-nitrogen adsorption analysis to determine the total surface area of the samples as follows:
Approximately 0.2-0.5 g of material (accurately weighed) was loaded into a surface area analyser glass tube fitted with a glass rod in order to minimise the overall free space. The sample was then outgased under vacuum at 30° C. for several hours. Upon completion of the outgas step, the sample tube was removed from the analyser and backfilled with helium to avoid refilling with air from the surrounding environment. The sample tube was reweighed in order to calculate the amount of dry sample used during the analysis step. The analyser tube was then loaded into the surface area analyser, and free space analysis was then conducted in order to account for the free volume in the tube and thus accurately measure the quantity of gas adsorbed directly on the powder surface. Nitrogen gas adsorption measurement was executed in a liquid nitrogen filled dewar at 77.3K. BET multipoint surface area determination was performed in the partial pressure range p/po=0.1-0.3 with 5 data points. Specific surface area calculation was performed by linear regression analysis of data according to the BET equation.

Data set [5] can be described thus: Powder dissolution in 0.1N HCl (37° C.). The conditions noted are these: for dissolution characteristics: 0.1N HCl, 37° C., FIG. 4, compared with samples B and C; for dissolution kinetics: in the media, FIGS. 4 and 5. As to the method: FIG. 4: Powder dissolution profiles in 0.1N HCl (37° C.) of samples of irbesartan. Dissolution experiments were executed in 0.1N HCt (37° C.) on the four micronised samples A-D of irbesartan. […] Thus with all other parameters being equal, it can be seen that the improved dissolution profile directly correlates to the increased water surface area of samples A and D.

Regarding `CCCCC1=NC2(CCCC2)C(=O)N1Cc1ccc(-c2ccccc2-c2nnn[nH]2)cc1` [Sample A, irbesartan], in data set [1], the “Water Surface Area (WSA)” value is 6.7 m^2/g. Further, the “Water Surface Area (WSA)” value in data set [1] (listed as sample A) was 6.65 m^2/g. Further, the “apparent monolayer amount (change in mass at minimum of Φ/RT)” value in data set [1] (ESW model, mdry=18.57 mg) amounted to 0.0369 mg. For the same molecule, in data set [2], the “Water Surface Area (WSA)” value was determined as 5.9 m^2/g, the “water surface area (ranking)” value is “largest water surface areas”, the “surface hydrophilicity group predicted from the WSA data” value (“surface hydrophilicity group predicted” below) is “relatively hydrophilic” and the “number of hydrophilic domains” value is listed as “approximately twice the number of hydrophilic domains”. The “WSA compared with SSA” value in data set [2] is “greater than the SSA”. Further, the “Water Surface Area (WSA)” value in data set [2] (listed as sample A) was found to be 5.9 m^2/g. The “apparent monolayer amount nmono” value in data set [2] (BET model, mdry=18.57 mg) is on record as 0.0327 mg. Further, in data set [3], the “D (v, 0.1) particle size” value is recorded as 1 μm; the “D (v, 0.5) particle size” value amounted to 3 μm; the “D (v, 0.9) particle size” value is listed as 12 μm. The “Specific Surface Area (nitrogen)” value in data set [4] stood at 5.17 m^2/g. Besides, in data set [5], the dissolution characteristics result is listed as “enhanced dissolution characteristics” and the dissolution kinetics entry is listed as “significantly faster dissolution kinetics”.
For the molecule `CCCCC1=NC2(CCCC2)C(=O)N1Cc1ccc(-c2ccccc2-c2nnn[nH]2)cc1` [Sample B, irbesartan], the “Water Surface Area (WSA)” value in data set [1] was determined as 3.0 m^2/g. Further, in data set [2], the “Water Surface Area (WSA)” value is 3.2 m^2/g, the “surface hydrophilicity group predicted” value is listed as “relatively hydrophobic” and the “number of hydrophilic domains” value is “approximately a similar number of hydrophilic domains as each other”. Moreover, in data set [3], the “D (v, 0.1) particle size” value stood at 1 μm; the “D (v, 0.5) particle size” value is 3 μm; the “D (v, 0.9) particle size” value turned out to be 17 μm. Besides, the “specific surface area (ranking among samples A-D)” value in data set [4] (BET nitrogen adsorption) was “greatest specific surface area”. In data set [4], the “Specific Surface Area (nitrogen)” value was 6.16 m^2/g. Also, the dissolution profile entry in data set [5] (compared with samples A and D) was “significantly poorer dissolution profile”.
With `CCCCC1=NC2(CCCC2)C(=O)N1Cc1ccc(-c2ccccc2-c2nnn[nH]2)cc1` [Sample C, irbesartan], in data set [1], the “Water Surface Area (WSA)” value is on record as 4.3 m^2/g. Moreover, in data set [2], the “Water Surface Area (WSA)” value stood at 3.6 m^2/g, the “surface hydrophilicity group predicted” value is “relatively hydrophobic”, the “number of hydrophilic domains” value is listed as “approximately a similar number of hydrophilic domains as each other” and the “WSA compared with SSA” value is given as “greater than the SSA”. In data set [3], the “D (v, 0.1) particle size” value turned out to be 1 μm; the “D (v, 0.5) particle size” value was 5 μm; the “D (v, 0.9) particle size” value is 13 μm. The “Specific Surface Area (nitrogen)” value in data set [4] was determined as 3.16 m^2/g.
Take `CCCCC1=NC2(CCCC2)C(=O)N1Cc1ccc(-c2ccccc2-c2nnn[nH]2)cc1` [Sample D, irbesartan]: the “Water Surface Area (WSA)” value in data set [1] was 6.5 m^2/g. Also, in data set [2], the “Water Surface Area (WSA)” value was 6.5 m^2/g, the “water surface area (ranking)” value is “largest water surface areas”, the “surface hydrophilicity group predicted” value is listed as “relatively hydrophilic” and the “number of hydrophilic domains” value is recorded as “approximately twice the number of hydrophilic domains”. In data set [2], the “WSA compared with SSA” value is “greater than the SSA”. Besides, in data set [3], the “D (v, 0.1) particle size” value turned out to be 1 μm; the “D (v, 0.5) particle size” value worked out at 3 μm; the “D (v, 0.9) particle size” value is 7 μm. The “Specific Surface Area (nitrogen)” value in data set [4] is 4.29 m^2/g. Also, in data set [5], the dissolution characteristics entry is listed as “enhanced dissolution characteristics” and the dissolution kinetics entry was “significantly faster dissolution kinetics”.
